Assay results as given in patent US5696153A, “Therapeutic regimen for treating patients” (priority 1996, dated 1997).
Like-named read-outs stand apart in the source and are kept apart here.

Tests used:
SK-N-AS cells = assay: Effects of spacing exposure to taxol on toxicity in SK-N-AS cells
Procedure: (§1) Stock cells in 25 cm^2 flasks were incubated in Dubelco's modified Eagle's medium (Sigma, St. Louis, Mo.) containing 10% fetal bovine serum at 37° C. and 5% CO2 in air for 5 days. Media was renewed on the sixth day and on the seventh day the cells were detached into a single cell suspension with trypsin EDTA, counted and aliquots plated at 3000 to 5000 cells in 0.1 ml fresh media in separate wells of a 96-well microliter plate (Becton-Dickinson Labware, Lincoln Park, N.J.). […] Six replicate wells were used in every experiment as controls and for each test concentration. Each experiment was repeated three separate times. Viability of the cell lines 5 days after exposure to drugs was determined by the MTT assay following published procedures.

[1] = test system: VA-MG-SL glioblastoma cells; assay: cells; settings: for cytotoxicity at 0.1 µg/mL / cytotoxicity at 1 µg/mL: Homo sapiens, 120 h
Source text: (§2) Cell lines tested included: Glioblastoma cell lines VA-MG-SL and U-373-MG, neuroblastoma cell lines SK-N-AS, SK-N-FI and VA-N-BR, and two primitive neuroectodermal tumor cell lines SK-N-LO and SK-PN-DW at different concentrations. All cell lines were personally established from patients and cultured except U-373-MG (obtained from the American Type Culture Collection, Rockville, […]., USA). The cell lines SK-N-AS, SK-N-FI, SK-N-LO and SK-PN-DW have been reported in several publications and are believed to be representative of their respective lineages.
as §1
(§3) Cytocidal activity was defined when the number of cells or the MTT surrogate optical density value was less than the initial inoculum. This is usually the case when ≥80% toxicity is recorded under these in vitro conditions.
(§4) Differences were considered to be statistically significant for a p-value of 0.05 or less.

[2] = test system: U-373-MG glioblastoma cells; assay: cells; settings: Homo sapiens, U373 MG; for cytotoxicity at 0.1 µg/mL / cytotoxicity at 1 µg/mL: 120 h
Source text: as §2, §1, §3, §4

[3] = test system: VA-N-BR neuroblastoma cells; assay: cells; settings: Neuroblastoma cell; for cytotoxicity at 0.1 µg/mL / cytotoxicity at 1 µg/mL: Homo sapiens, 120 h
Source text: as §2, §1, §3, §4

[4] = test system: SK-N-FI neuroblastoma cells; assay: cells; settings: for cytotoxicity at 0.1 µg/mL / cytotoxicity at 1 µg/mL: 120 h
Source text: as §2, §1, §3, §4

[5] = test system: SK-N-AS neuroblastoma tumor in nude mice; assay type: in vivo
Source text: Five nude mice were maintained in each cage with a fiberglass bonnet in a clean isolation room. All cages and food were sterilized prior to use. Female nude mice were inoculated subcutaneously with 3×10^6 human neuroblastoma (SK-N-AS) tumor cells. Between 8-16 days, tumor growth was evident and measured.

[6] = Homo sapiens, SK-N-AS, 120 h, read-out: Survival (%)
[7] = read-out: concentration at which cell line was affected

## CC(=O)O[C@H]1C(=O)[C@@]2(C)[C@H]([C@H](OC(=O)c3ccccc3)[C@]3(O)C[C@H](OC(=O)[C@H](O)[C@@H](NC(=O)c4ccccc4)c4ccccc4)C(C)=C1C3(C)C)[C@]1(OC(C)=O)CO[C@@H]1C[C@@H]2O [taxol]
SK-N-AS cells; [6]
  viability at 0.3 µg/mL: 61%
  viability at 0.6 µg/mL: 24%
SK-N-AS cells; single exposure 0.6 μg/ml/h
  cytotoxic effects of single vs split exposure: greater than when taxol was scheduled as 0.3 μg/ml given once and once again after 30 minutes
[1]; read-out: Taxol toxicity, VA-MG-SL, 0.1 μg/ml x 1 h, 5 days after exposure
  cytotoxicity at 0.1 µg/mL: 58%
[1]; read-out: Taxol toxicity, VA-MG-SL, 0.1 μg/ml x 4 h, 5 days after exposure
  cytotoxicity at 0.1 µg/mL: 56%
[1]; read-out: Taxol toxicity, VA-MG-SL, 0.1 μg/ml x 24 h, 5 days after exposure
  cytotoxicity at 0.1 µg/mL: 58%
[1]; read-out: Taxol toxicity, VA-MG-SL, 1.0 μg/ml x 1 h, 5 days after exposure
  cytotoxicity at 1 µg/mL: 87%
[1]; read-out: Taxol toxicity, VA-MG-SL, 1.0 μg/ml x 4 h, 5 days after exposure
  cytotoxicity at 1 µg/mL: 90%
[1]; read-out: Taxol toxicity, VA-MG-SL, 1.0 μg/ml x 24 h, 5 days after exposure
  cytotoxicity at 1 µg/mL: 86%
[1]; [7]
  minimal effective concentration: ≥ 0.1 µg/mL
[2]; read-out: Taxol toxicity, U-373-MG, 0.1 μg/ml x 1 h, 5 days after exposure
  cytotoxicity at 0.1 µg/mL: 46%
[2]; read-out: Taxol toxicity, U-373-MG, 0.1 μg/ml x 4 h, 5 days after exposure
  cytotoxicity at 0.1 µg/mL: 56%
[2]; read-out: Taxol toxicity, U-373-MG, 0.1 μg/ml x 24 h, 5 days after exposure
  cytotoxicity at 0.1 µg/mL: 57%
[2]; read-out: Taxol toxicity, U-373-MG, 1.0 μg/ml x 1 h, 5 days after exposure
  cytotoxicity at 1 µg/mL: 74%
[2]; read-out: Taxol toxicity, U-373-MG, 1.0 μg/ml x 4 h, 5 days after exposure
  cytotoxicity at 1 µg/mL: 79%
[2]; read-out: Taxol toxicity, U-373-MG, 1.0 μg/ml x 24 h, 5 days after exposure
  cytotoxicity at 1 µg/mL: 79%
[2]; [7]
  minimal effective concentration: ≥ 0.1 µg/mL
[3]; read-out: Taxol toxicity, VA-N-BR, 0.1 μg/ml x 1 h, 5 days after exposure
  cytotoxicity at 0.1 µg/mL: 61%
[3]; read-out: Taxol toxicity, VA-N-BR, 0.1 μg/ml x 4 h, 5 days after exposure
  cytotoxicity at 0.1 µg/mL: 66%
[3]; read-out: Taxol toxicity, VA-N-BR, 0.1 μg/ml x 24 h, 5 days after exposure
  cytotoxicity at 0.1 µg/mL: 68%
[3]; read-out: Taxol toxicity, VA-N-BR, 1.0 μg/ml x 1 h, 5 days after exposure
  cytotoxicity at 1 µg/mL: 87%
[3]; read-out: Taxol toxicity, VA-N-BR, 1.0 μg/ml x 4 h, 5 days after exposure
  cytotoxicity at 1 µg/mL: 84%
[3]; read-out: Taxol toxicity, VA-N-BR, 1.0 μg/ml x 24 h, 5 days after exposure
  cytotoxicity at 1 µg/mL: 83%
[3]; [7]
  minimal effective concentration: ≥ 0.1 µg/mL
[4]; 0.01-1.0 μg/ml
  resilience of cell line to taxol (least/most resilient): the most
[4]; Homo sapiens, read-out: Taxol toxicity, SK-N-FI, 0.1 μg/ml x 1 h, 5 days after exposure
  cytotoxicity at 0.1 µg/mL: 0%
[4]; Homo sapiens, read-out: Taxol toxicity, SK-N-FI, 0.1 μg/ml x 4 h, 5 days after exposure
  cytotoxicity at 0.1 µg/mL: 0%
[4]; Homo sapiens, read-out: Taxol toxicity, SK-N-FI, 0.1 μg/ml x 24 h, 5 days after exposure, p < 0.05 vs 1 h
  cytotoxicity at 0.1 µg/mL: 14%
[4]; Homo sapiens, read-out: Taxol toxicity, SK-N-FI, 1.0 μg/ml x 1 h, 5 days after exposure
  cytotoxicity at 1 µg/mL: 0%
[4]; Homo sapiens, read-out: Taxol toxicity, SK-N-FI, 1.0 μg/ml x 4 h, 5 days after exposure
  cytotoxicity at 1 µg/mL: 58%
[4]; Homo sapiens, read-out: Taxol toxicity, SK-N-FI, 1.0 μg/ml x 24 h, 5 days after exposure, p < 0.05 vs 1 h
  cytotoxicity at 1 µg/mL: 76%
[4]; Homo sapiens, read-out: concentration at which cell line was affected
  minimal effective concentration: ≥ 0.1 µg/mL
[5]; 10 mg/kg IP Q4D×3
  antitumor activity in words: antitumor activity ranging from tumor growth inhibition to tumor lysis
  variance in response to drug therapy: ranging from tumor lysis to slowed growth
[5]; Study C, 10 mg/kg IP Q4D×3
  mice with delayed tumor growth: 4/5
  mice with tumor regression: 1/5
[5]; Treated Group B, 10 mg/kg IP Q4D×3
  tumor sizes or weight gain, day 1 vs day 14: no significant difference in tumor sizes or weight gain
[5]; mouse, in vivo
  weight gain between day 1 and day 14: no significant weight gain
[5]; mouse, in vivo, ip, 10 mg/kg
  Wt, Day #1, MEAN: 26.6
  Wt, Day #14, MEAN: 28.8
[5]; treated, 10 mg/kg IP Q4D×3, S.E. ±5.1
  Tumor area, Day #1, MEAN: 60.3
[5]; treated, 10 mg/kg IP Q4D×3, S.E. ±21.5
  Tumor area, Day #5, MEAN: 93
[5]; treated, 10 mg/kg IP Q4D×3, S.E. ±23.6
  Tumor area, Day #9, MEAN: 105.6
[5]; treated, 10 mg/kg IP Q4D×3, S.E. ±54.8
  Tumor area, Day #14, MEAN: 142
